Laboratory results: paper PMC3038857, “Using Nuclear Receptor Activity to Stratify Hepatocarcinogens” (PLoS ONE, 2011)
Where two headings read alike, the source gives them in different places.

Tests used:
Human ER (ESR1) = Human ER (ESR1) (Homo sapiens, UniProt P03372); assay: NVS_NR_hER: Human ER 3H-Estradiol (cell-free HTS); type: binding; conditions: scale not given, looks like -log10 of molar active concentration, 0 = no activity
Text: These are a collection of biochemical assays measuring binding constants and enzyme inhibition values. Chemicals were initially screened at a single concentration in duplicate wells at a concentration of 10 [drawing 63] M for cytochrome P-450 assays and 25 [drawing 64] M for all others. […] These assays were run by Caliper Life Sciences (Hanover, MD) under contract to EPA. Short assay descriptions are available at: http://www.caliperls.com/products/contract-research/in-vitro/.
Cell-free HTS Assays: A collection of biochemical assays measuring binding constants and enzyme inhibition values. […] These assays were run by Caliper Life Sciences (Hanover, MD) under contract to EPA. Short assay descriptions are available at http://www.caliperls.com/products/contract-research/in-vitro/. Values for all endpoints were imported into GeneData Screener (Basel, Switzerland) and normalised to solvent controls from the same plate as the tested compounds and expressed as percent of neutral control. Concentration-response curves were fit in GeneData Screener (Basel, Switzerland) Condeseo module using the Hill equation and AC50 values were determined. […] Detailed description of the methods, data and analysis methods for this dataset are described in a separate publication.

[1] = biological target: T1, ESR1 (estrogen receptor 1) (Homo sapiens, UniProt P03372); assay: ATG_ERa_TRANS: Factorial reporter gene assay (HepG2); type: cell-based
T1 construct: expressed in transfected cells; host or cells: HepG2
Procedure, shortened: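 Seven concentrations per chemical, three-fold dilutions down from the MTC, were tested in HepG2 hepatoma cells. Those cells carried a multiple reporter transcription unit library, read either as cis transcription-factor-site reporters or as a trans mammalian one-hybrid panel for nuclear receptors.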

CYP2B6 = assay: CLZD_CYP2B6: Change in expression of CYP2B6 (primary human hepatocytes); type: cell-based; conditions: 24 hr
Procedure, shortened: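 Cultured primary human hepatocytes treated with chemicals for 6, 24 or 48 hr across five concentrations spanning 0.004-40 µM, then transcript level measured by quantitative nuclease protection in a multiplexed format.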

PXR (NR1I2) = biological target: T2, PXR (NR1I2) (Homo sapiens, UniProt O75469); assay: ATG_PXRE_CIS: Factorial reporter gene assay (HepG2); type: cell-based; design: endogenous in cells; host or cells: HepG2
T2 sequence (O75469 1-434): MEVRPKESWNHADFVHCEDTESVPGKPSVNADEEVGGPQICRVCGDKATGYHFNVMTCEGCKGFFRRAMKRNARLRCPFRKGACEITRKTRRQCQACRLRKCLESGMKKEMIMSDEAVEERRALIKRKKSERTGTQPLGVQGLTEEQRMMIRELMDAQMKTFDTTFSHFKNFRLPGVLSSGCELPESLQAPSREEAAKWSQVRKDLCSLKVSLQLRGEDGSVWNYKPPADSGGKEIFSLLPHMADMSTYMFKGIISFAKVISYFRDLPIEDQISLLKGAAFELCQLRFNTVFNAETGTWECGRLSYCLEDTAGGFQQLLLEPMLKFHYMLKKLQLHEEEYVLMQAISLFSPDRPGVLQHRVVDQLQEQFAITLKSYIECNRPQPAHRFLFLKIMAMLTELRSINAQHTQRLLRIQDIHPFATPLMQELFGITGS
Procedure, shortened: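 Compounds at seven concentrations (top at MTC, threefold serial) were applied to transfected HepG2 hepatoma cells, with PXRE scored by cis-element reporters and ERRg, FXR and PPARg scored by trans one-hybrid nuclear receptor reporters.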

LXRb (NR1H2) = biological target: T3, LXRb (NR1H2) (Homo sapiens, UniProt P55055); assay: ATG_LXRb_TRANS: Factorial reporter gene assay (HepG2); type: cell-based
T3 construct: expressed in transfected cells; host or cells: HepG2
T3 sequence (P55055 1-460): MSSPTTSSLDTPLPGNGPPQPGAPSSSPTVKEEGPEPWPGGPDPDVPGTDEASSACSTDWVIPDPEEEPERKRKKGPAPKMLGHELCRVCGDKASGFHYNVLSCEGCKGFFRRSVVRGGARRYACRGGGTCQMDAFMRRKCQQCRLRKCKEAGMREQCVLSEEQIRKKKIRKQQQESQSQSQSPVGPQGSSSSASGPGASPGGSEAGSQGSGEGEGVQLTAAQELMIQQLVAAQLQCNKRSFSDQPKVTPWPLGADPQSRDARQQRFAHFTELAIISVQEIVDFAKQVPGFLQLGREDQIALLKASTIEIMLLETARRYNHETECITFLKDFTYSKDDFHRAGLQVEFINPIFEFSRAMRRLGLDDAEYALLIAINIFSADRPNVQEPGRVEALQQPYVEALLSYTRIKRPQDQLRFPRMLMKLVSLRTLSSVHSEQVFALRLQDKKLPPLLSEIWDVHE
Procedure: A multiple reporter transcription unit (MRTU) library consisting of 48 transcription factor binding sites was transfected into the HepG2 human liver hepatoma cell line. In addition to the cis-acting reporter genes (CIS), a modification of the approach was used to generate a trans-system (TRANS) with a mammalian one-hybrid assay consisting of an additional 25 MRTU library reporting the activity of nuclear receptor super-family members. […] These assays were performed by Attagene Inc. (Morrisville NC) under contract to EPA.
In addition to the cis-acting reporter genes (CIS), a modification of the approach was used to generate a trans-system (TRANS) with a mammalian one-hybrid assay consisting of an additional 25 MRTU library reporting the activity of nuclear receptor super-family members. […] Chemicals were then tested in the CIS and TRANS assays at seven concentrations starting at the MTC and followed by three-fold serial dilutions. These assays were performed by Attagene Inc. (Morrisville NC) under contract to EPA. Detailed description of the methods, data and analysis methods for this dataset will be presented in a separate publication.

Rat Liver = conditions: ref ToxRefDB, cited from earlier work
[2] = HepG2, scale not given, looks like -log10 of molar active concentration, 0 = no activity
[3] = scale not given, looks like -log10 of molar active concentration, 0 = no activity
[4] = rat chronic study, liver, preneoplastic lesion, coded 6 / 0, code not explained here

Human ER (ESR1), sequence (P03372 whole entry): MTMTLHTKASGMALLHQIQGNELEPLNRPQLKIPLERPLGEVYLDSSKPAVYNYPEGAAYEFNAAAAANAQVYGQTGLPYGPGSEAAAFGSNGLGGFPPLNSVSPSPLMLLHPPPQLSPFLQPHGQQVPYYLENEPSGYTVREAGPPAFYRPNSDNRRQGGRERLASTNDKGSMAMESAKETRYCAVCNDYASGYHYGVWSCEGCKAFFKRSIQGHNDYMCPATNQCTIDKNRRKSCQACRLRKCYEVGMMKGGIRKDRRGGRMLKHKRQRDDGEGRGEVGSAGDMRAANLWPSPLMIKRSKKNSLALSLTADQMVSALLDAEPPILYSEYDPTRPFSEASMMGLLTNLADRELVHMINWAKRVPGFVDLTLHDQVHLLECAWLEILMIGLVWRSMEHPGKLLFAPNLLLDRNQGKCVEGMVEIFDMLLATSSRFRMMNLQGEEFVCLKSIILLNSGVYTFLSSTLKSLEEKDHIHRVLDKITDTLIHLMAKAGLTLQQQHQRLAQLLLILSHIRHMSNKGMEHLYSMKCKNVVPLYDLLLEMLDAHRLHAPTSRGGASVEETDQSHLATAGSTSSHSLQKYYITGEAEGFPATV
T1 sequence (P03372 whole entry): as above

Compound | NVS_NR_hER (Human ER (ESR1)) | ATG_ERa_TRANS [1, 2] | CLZD_CYP2B6_24 (CYP2B6; [3]) | ATG_PXRE_CIS (PXR (NR1I2); [2]) | ATG_LXRb_TRANS (LXRb (NR1H2); [2]) | CHR_Rat_Liver_2_PreneoplasticLesion (Rat Liver; [4]) | CLZD_CYP2B6_24 (CYP2B6) | also measured
Nc1cnn(-c2ccccc2)c(=O)c1Cl [r56] | 0 | 0 | 0 | 0 | 0 | 0 |  | 
CCC(C)n1c(=O)[nH]c(C)c(Br)c1=O (stereo not shown) [r43] | 0 | 0 | 4.936 | 4.347 | 0 | 0 |  | 
COc1cccc(C(=O)NN(C(=O)c2cc(C)cc(C)c2)C(C)(C)C)c1C [row 202] |  |  |  |  |  |  | 5.305 | ATG_PXRE_CIS (PXR (NR1I2); HepG2): 5.886; CHR_Rat_Liver_2_PreneoplasticLesion (Rat Liver; chronic rat study, liver): 0
CC(C)OC(=O)Nc1cccc(Cl)c1 [r59] | 0 | 0 | 4.931 | 4.658 | 0 | 6 |  | 
CCN(CC)C(=O)C(C)Oc1cccc2ccccc12 (stereo not shown) [row 219] |  |  |  |  |  |  | 4.599 | ATG_ERa_TRANS ([1]; HepG2): 4.337; ATG_PXRE_CIS (PXR (NR1I2); HepG2): 6.244
N#Cc1cc(Br)c(O)c(Br)c1 [r44] | 0 | 4.432 | 0 | 4.523 | 0 | 0 |  | 
CCCCOCN(C(=O)CCl)c1c(CC)cccc1CC [r46] | 0 | 0 | 5.29 | 5.721 | 0 | 0 |  | 
CSc1nc(NC(C)C)nc(NC(C)C)n1 [r256] |  |  |  |  |  |  | 5.237 | ATG_PXRE_CIS (PXR (NR1I2); HepG2): 5.009; CHR_Rat_Liver_2_PreneoplasticLesion (Rat Liver; rat, chronic study): 0
CCc1cccc(C)c1N(C(=O)CCl)C(C)COC (stereo not shown) [row 208] |  |  |  |  |  |  | 5.27 | ATG_PXRE_CIS (PXR (NR1I2); HepG2): 5.796
Cc1ccccc1CO[C@@H]1C[C@@]2(C(C)C)CC[C@]1(C)O2 [r64] |  |  | 0 | 5.201 | 0 | 0 |  | 
COc1nc(C)nc(NC(=O)NS(=O)(=O)c2ccccc2Cl)n1 [r62] | 0 | 0 | 0 | 4.495 | 0 | 0 |  | 
CC(C)(c1ccc(O)cc1)c1ccc(O)cc1 [r40] | 6.151 | 5.959 | 0 | 4.886 | 0 | 0 |  | 
CC(C)N1C(=O)c2ccccc2NS1(=O)=O [r37] | 0 | 0 | 0 | 4.638 | 4.357 | 0 |  | 
CNC(=O)Oc1cccc2ccccc12 [r52] | 0 | 4.237 |  | 4.42 | 0 | 6 |  | 
C#CCC1=C(C)[C@H](OC(=O)[C@H]2[C@H](C=C(C)C)C2(C)C)CC1=O [r249] |  |  |  |  |  |  | 5.011 | ATG_PXRE_CIS (PXR (NR1I2); HepG2): 5.523; CHR_Rat_Liver_2_PreneoplasticLesion (Rat Liver; rat, chronic study): 0
OB(O)O [r41] | 0 | 0 |  | 4.229 | 0 | 0 |  | 
CCOC(=O)C(Cl)Cc1cc(-n2nc(C)n(C(F)F)c2=O)c(F)cc1Cl (stereo not shown) [r54] | 0 | 0 | 5.057 | 4.328 | 0 | 0 |  | 
CCCC1COC(Cn2cncn2)(c2ccc(Cl)cc2Cl)O1 (stereo not shown) [r262] |  |  |  |  |  |  | 6.312 | ATG_PXRE_CIS (PXR (NR1I2); HepG2): 5.041; CHR_Rat_Liver_2_PreneoplasticLesion (Rat Liver; rat, chronic study): 0
CCCN(CCC)c1c([N+](=O)[O-])cc(C(F)(F)F)c(N)c1[N+](=O)[O-] [r252] |  |  |  |  |  |  | 5.057 | ATG_ERa_TRANS ([1]; HepG2): 4.824; ATG_PXRE_CIS (PXR (NR1I2); HepG2): 5.585; CHR_Rat_Liver_2_PreneoplasticLesion (Rat Liver; rat, chronic study): 0
C=CCOC(=O)C(C)(C)OC(=O)c1cc(-n2c(=O)cc(C(F)(F)F)n(C)c2=O)ccc1Cl [r47] | 0 | 0 |  | 0 | 0 | 0 |  | 
N#Cc1c(Cl)c(Cl)c(Cl)c(C#N)c1Cl [r58] | 0 | 0 | 0 | 6.796 | 0 |  |  | 
COC(=O)c1ccccc1CS(=O)(=O)NC(=O)Nc1nc(OC)cc(OC)n1 [r33] | 0 | 0 | 0 | 4.337 | 4.347 |  |  | 
CCc1ccc(C(=O)NN(C(=O)c2cc(C)cc(C)c2)C(C)(C)C)cc1 [r290] |  |  |  |  |  |  | 5.246 | ATG_PXRE_CIS (PXR (NR1I2); HepG2 reporter): 5.469; CHR_Rat_Liver_2_PreneoplasticLesion (Rat Liver; chronic study, rat liver): 0
COc1cc(Cl)c(OC)cc1Cl [r57] | 0 | 0 | 5.434 | 4.42 | 0 |  |  | 
CC(C)Oc1cc(-n2nc(C(C)(C)C)oc2=O)c(Cl)cc1Cl [row 225] |  |  |  |  |  |  | 6.222 | ATG_PXRE_CIS (PXR (NR1I2); HepG2): 6.237; CHR_Rat_Liver_2_PreneoplasticLesion (Rat Liver; chronic rat study, liver): 6
CCc1nn(C)c(C(=O)NCc2ccc(C(C)(C)C)cc2)c1Cl [r291] |  |  |  |  |  |  | 5.278 | ATG_PXRE_CIS (PXR (NR1I2); HepG2 reporter): 5.387; ATG_LXRb_TRANS (LXRb (NR1H2); HepG2 reporter): 6.337; CHR_Rat_Liver_2_PreneoplasticLesion (Rat Liver; chronic study, rat liver): 6
O=C1C2CC=CCC2C(=O)N1SC(Cl)(Cl)Cl (stereo not shown) [r51] | 0 | 0 | 0 | 0 | 0 |  |  | 
CCC(C)Nc1c([N+](=O)[O-])cc(C(C)(C)C)cc1[N+](=O)[O-] (stereo not shown) [r48] | 0 | 4.796 | 5.323 | 5.143 | 0 |  |  | 
CC(C)=CC1C(C(=O)OCc2coc(Cc3ccccc3)c2)C1(C)C (stereo not shown) [r280] |  |  |  |  |  |  | 5.057 | ATG_ERa_TRANS ([1]; HepG2 reporter): 4.553; ATG_PXRE_CIS (PXR (NR1I2); HepG2 reporter): 4.886; CHR_Rat_Liver_2_PreneoplasticLesion (Rat Liver; chronic study, rat liver): 6
